Laboratory results reported in patent publication US4272437A, “Antibacterial agents, and 4-thio azetidinone intermediates” (priority 1979, dated 1981).
Converted amounts (≈) assume the structure as drawn. Read-outs that look alike come from different tables or passages of the source.

Experiments:
E. coli A-15119 = assay: MIC, tube dilution, Escherichia coli A15119; assay type: cell-based; settings: Escherichia coli, A15119, E. coli A15119; overnight 37° C.; read-out: Minimum Inhibitory Concentration (M.I.C.)
Source text: (§1) Representative compounds of the present invention were subjected to in vitro antibiotic screening against a variety of microorganisms.

Pr. morganii A-15153 = assay: MIC, tube dilution, Proteus morganii A15153; assay type: cell-based; settings: Morganella morganii, A15153, Proteus morganii A15153; overnight 37° C.; read-out: Minimum Inhibitory Concentration (M.I.C.)
Source text: as §1

Staph. aureus A-9537 = assay: MIC, tube dilution, Staphylococcus aureus A9537; assay type: cell-based; settings: Staphylococcus aureus, A9537, Staph. aureus A9537; overnight 37° C., Nutrient Broth; read-out: Minimum Inhibitory Concentration (M.I.C.)
Source text: as §1

Proteus rettgeri A21203 = assay: MIC, tube dilution, Proteus rettgeri A21203; assay type: cell-based; settings: Providencia rettgeri, overnight 37° C., read-out: Minimum Inhibitory Concentration (M.I.C.)
Source text: as §1

K. pneumoniae A-15130 = assay: MIC, tube dilution, Klebsiella pneumoniae A15130; assay type: cell-based; settings: Klebsiella pneumoniae, A15130, K. pneumoniae A15130; overnight 37° C.; read-out: Minimum Inhibitory Concentration (M.I.C.)
Source text: as §1

Ent. cloacae A-9656 = assay: MIC, tube dilution, Enterobacter cloacae A9656; assay type: cell-based; settings: overnight 37° C., read-out: Minimum Inhibitory Concentration (M.I.C.)
Source text: as §1

E. coli A-20341-1 = assay: MIC, tube dilution, Escherichia coli A20341-1; assay type: cell-based
Source text: as §1

Ps. aeruginosa A-9843A = assay: MIC, tube dilution, Pseudomonas aeruginosa A9843A; assay type: cell-based; settings: Pseudomonas aeruginosa, A9843A, read-out: Minimum Inhibitory Concentration (M.I.C.), Pseudomonas aeruginosa A9843A; overnight 37° C.
Source text: as §1

Str. pyogenes A-9604 = assay: MIC, tube dilution, Streptococcus pyogenes A9604; assay type: cell-based; settings: Streptococcus pyogenes, A9604, Str. pyogenes A9604; overnight 37° C., Nutrient Broth; read-out: Minimum Inhibitory Concentration (M.I.C.)
Source text: as §1

Ps. aeruginosa A-21213 = assay: MIC, tube dilution, Pseudomonas aeruginosa A21213; assay type: cell-based; settings: overnight 37° C., read-out: Minimum Inhibitory Concentration (M.I.C.)
Source text: as §1

Ent. cloacae A-9659 = assay: MIC, tube dilution, Enterobacter cloacae A9659; assay type: cell-based; settings: Enterobacter cloacae, A9659, Enterobacter cloacae A9659; overnight 37° C.; read-out: Minimum Inhibitory Concentration (M.I.C.)
Source text: as §1

[1] = test system: Klebsiella species A20468; assay: MIC, tube dilution, Klebsiella species A20468; assay type: cell-based; settings: Klebsiella species (K. pneumoniae) A20468; overnight 37° C.; read-out: Minimum Inhibitory Concentration (M.I.C.)
Source text: as §1

Pr. vulgaris A-9716 = assay: MIC, tube dilution, Proteus vulgaris / Proteus mirabilis A9716; assay type: cell-based, Proteus vulgaris (name changed to Proteus mirabilis); settings: Proteus vulgaris, A9716, Proteus vulgaris / Proteus mirabilis A9716; overnight 37° C.; read-out: Minimum Inhibitory Concentration (M.I.C.)
Source text: as §1

[2] = test system: Staph. aureus (Pen-Res) A-9606; assay: MIC, tube dilution, Staphylococcus aureus A9606 (Pen-Res); assay type: cell-based; settings: Staphylococcus aureus, overnight 37° C.
Source text: as §1

[3] = test system: Staph. aureus A-9537 and 50% serum; assay: MIC, tube dilution, Staph. aureus A9537 + 50% serum; assay type: cell-based, Staphylococcus aureus; settings: Staphylococcus aureus, overnight 37° C., read-out: Minimum Inhibitory Concentration (M.I.C.)
Source text: as §1

Str. faecalis A-20688 = assay: MIC, tube dilution, Streptococcus faecalis A20688; assay type: cell-based; settings: Enterococcus faecalis, A20688, Str. faecalis A20688; overnight 37° C.; read-out: Minimum Inhibitory Concentration (M.I.C.)
Source text: as §1

Pr. mirabilis A-9900 = assay: MIC, tube dilution, Proteus mirabilis A9900; assay type: cell-based; settings: Proteus mirabilis, A9900, Proteus mirabilis A9900; overnight 37° C.; read-out: Minimum Inhibitory Concentration (M.I.C.)
Source text: as §1

Ser. marcescens A-20019 = assay: MIC, tube dilution, Serratia marcescens A20019; assay type: cell-based; settings: Serratia marcescens, A20019, Serratia marcescens A20019; overnight 37° C.; read-out: Minimum Inhibitory Concentration (M.I.C.)
Source text: as §1

[4] = test system: Staph. aureus (Meth-Res) A-15097; assay: MIC, tube dilution, Staphylococcus aureus A15097 (Meth-Res); assay type: cell-based; settings: Staphylococcus aureus, overnight 37° C.
Source text: as §1

Str. pneumoniae A-9585 = assay: MIC, tube dilution, Streptococcus pneumoniae A9585; assay type: cell-based; settings: Streptococcus pneumoniae, A9585, Str. pneumoniae A9585; overnight 37° C., Nutrient Broth; read-out: Minimum Inhibitory Concentration (M.I.C.)
Source text: as §1

Proteus vulgaris A21559 = assay: MIC, tube dilution, Proteus vulgaris A21559; assay type: cell-based; settings: Proteus vulgaris
Source text: as §1

[5] = A21203, Proteus rettgeri A21203
[6] = Enterobacter cloacae, A9656, Enterobacter cloacae A9656
[7] = Escherichia coli, A203411; E. coli A20341-1; overnight 37° C.; read-out: Minimum Inhibitory Concentration (M.I.C.)
[8] = Staph. aureus A9606 (Pen-Res), read-out: Minimum Inhibitory Concentration (M.I.C.)
[9] = read-out: Minimum Inhibitory Concentration (M.I.C.), Staph. aureus A15097 (Meth-Res)
[10] = Escherichia coli, A203411, E. coli A20341-1; overnight 37° C.; read-out: Minimum Inhibitory Concentration (M.I.C.)
[11] = Pseudomonas aeruginosa, A21213, Pseudomonas aeruginosa A21213
[12] = A21559, Proteus vulgaris A21559, overnight 37° C., read-out: Minimum Inhibitory Concentration (M.I.C.)
[13] = Staph. aureus A15097 (Meth-Res), read-out: Minimum Inhibitory Concentration (M.I.C.)

SMILES	MIC (E. coli A-15119)	MIC (Pr. morganii A-15153)	MIC (Staph. aureus A-9537)	MIC (Proteus rettgeri A21203; [5])	MIC (K. pneumoniae A-15130)	MIC (Ent. cloacae A-9656; [6])	MIC (E. coli A-20341-1; [7])	MIC (Ps. aeruginosa A-9843A)	MIC (Str. pyogenes A-9604)	MIC (Ps. aeruginosa A-21213; Pseudomonas aeruginosa A21213)	MIC (Ent. cloacae A-9659)	MIC [1]	MIC (Pr. vulgaris A-9716)	MIC [2, 8]	MIC [3]	MIC (Str. faecalis A-20688)	MIC (Pr. mirabilis A-9900)	MIC (Ser. marcescens A-20019)	MIC [4, 9]	MIC (Str. pneumoniae A-9585)	other results
O=C(O)C1=C(Cc2c[nH]c3ccccc23)SC2CC(=O)N12 (centres unmarked) [Preparation 19, 2-(3'-Indole)methylpenem-3-carboxylic Acid]	8 µg/mL (≈ 26.6 µM)	2 µg/mL (≈ 6.66 µM)	0.03 µg/mL (≈ 0.0999 µM)	2 µg/mL (≈ 6.66 µM)	32 µg/mL (≈ 107 µM)	63 µg/mL (≈ 210 µM)	> 125 µg/mL	> 125 µg/mL	0.06 µg/mL (≈ 0.2 µM)	> 125 µg/mL	63 µg/mL (≈ 210 µM)	> 125 µg/mL	2 µg/mL (≈ 6.66 µM)	0.5 µg/mL (≈ 1.66 µM)	32 µg/mL	125 µg/mL (≈ 416 µM)	1 µg/mL (≈ 3.33 µM)	63 µg/mL (≈ 210 µM)	125 µg/mL (≈ 416 µM)	0.03 µg/mL (≈ 0.0999 µM)	
CC(C)(C)CC1=C(C(=O)O)N2C(=O)CC2S1 (centres unmarked) [Preparation 23, 2-(2',2'-Dimethylpropyl)penem-3-carboxylate]	16 µg/mL (≈ 66.3 µM)	63 µg/mL (≈ 261 µM)	0.25 µg/mL (≈ 1.04 µM)	32 µg/mL (≈ 133 µM)	125 µg/mL (≈ 518 µM)		> 125 µg/mL	> 125 µg/mL	0.25 µg/mL (≈ 1.04 µM)	> 125 µg/mL	125 µg/mL (≈ 518 µM)	> 125 µg/mL	4 µg/mL (≈ 16.6 µM)	32 µg/mL (≈ 133 µM)	> 63 µg/mL	> 125 µg/mL	2 µg/mL (≈ 8.29 µM)	125 µg/mL (≈ 518 µM)	125 µg/mL (≈ 518 µM)	0.25 µg/mL (≈ 1.04 µM)	MIC (Ent. cloacae A-9656; Enterobacter cloacae A9656): > 125 µg/mL
CC1(CC2=C(C(=O)O)N3C(=O)CC3S2)OCCO1 (centres unmarked) [Preparation 22, 2-(Acetonyl-ethylene-ketal)penem-3-carboxylic Acid]		8 µg/mL (≈ 29.5 µM)	0.5 µg/mL (≈ 1.84 µM)	16 µg/mL (≈ 59 µM)	32 µg/mL (≈ 118 µM)	63 µg/mL (≈ 232 µM)	125 µg/mL (≈ 461 µM)	125 µg/mL (≈ 461 µM)	0.25 µg/mL (≈ 0.922 µM)	125 µg/mL (≈ 461 µM)	63 µg/mL (≈ 232 µM)	125 µg/mL (≈ 461 µM)	4 µg/mL (≈ 14.7 µM)	32 µg/mL (≈ 118 µM)	32 µg/mL	125 µg/mL (≈ 461 µM)	16 µg/mL (≈ 59 µM)	63 µg/mL (≈ 232 µM)	> 125 µg/mL	0.13 µg/mL (≈ 0.479 µM)	
CC1=C(C(=O)O)N2C(=O)[C@H]([C@H](C)O)[C@H]2S1 (relative stereo) [Example 59, (1'S,5R,6S and 1'R,5S,6R) 6-(1'-Hydroxy-1'-ethyl)-2-methyl penem-3-carboxylic acid (isomer C)]	> 125 µg/mL	> 125 µg/mL	> 125 µg/mL		> 125 µg/mL		> 125 µg/mL	> 125 µg/mL	125 µg/mL (≈ 545 µM)	> 125 µg/mL	> 125 µg/mL	> 125 µg/mL			> 63 µg/mL	> 125 µg/mL	> 125 µg/mL	> 125 µg/mL	> 125 µg/mL	32 µg/mL (≈ 140 µM)	MIC (Proteus rettgeri A21203; Proteus rettgeri A21203): > 125 µg/mL; MIC (Ent. cloacae A-9656; Enterobacter cloacae A9656): > 125 µg/mL; MIC ([2]; read-out: Minimum Inhibitory Concentration (M.I.C.), Staph. aureus A9606 (Pen-Res)): > 125 µg/mL; MIC (Proteus vulgaris A21559; A21559, read-out: Minimum Inhibitory Concentration (M.I.C.)): > 125 µg/mL
NCC(=O)OCC1=C(C(=O)O)N2C(=O)CC2S1 (centres unmarked) [Example 81, 2-Aminoacetoxymethyl-penem-3-carboxylic Acid]	2 µg/mL (≈ 7.74 µM)	8 µg/mL (≈ 31 µM)	32 µg/mL (≈ 124 µM)	8 µg/mL (≈ 31 µM)	8 µg/mL (≈ 31 µM)	8 µg/mL (≈ 31 µM)		63 µg/mL (≈ 244 µM)	16 µg/mL (≈ 62 µM)		8 µg/mL (≈ 31 µM)	> 63 µg/mL		2 µg/mL (≈ 7.74 µM)	> 32 µg/mL	63 µg/mL (≈ 244 µM)	4 µg/mL (≈ 15.5 µM)	8 µg/mL (≈ 31 µM)		2 µg/mL (≈ 7.74 µM)	MIC (E. coli A-20341-1; [10]): 32 µg/mL (≈ 124 µM); MIC (Ps. aeruginosa A-21213; [11]): > 63 µg/mL; MIC (Proteus vulgaris A21559; [12]): 16 µg/mL (≈ 62 µM); MIC [4, 13]: 8 µg/mL (≈ 31 µM)
NCC[S+]([O-])CC1=C(C(=O)O)N2C(=O)C[C@H]2S1 (some centres unmarked) [Example 101, 2-(2-Aminoethylsulfinylmethyl) penem-3-carboxylic Acid]	8 µg/mL (≈ 28.9 µM)	16 µg/mL (≈ 57.9 µM)	0.5 µg/mL (≈ 1.81 µM)	16 µg/mL (≈ 57.9 µM)	32 µg/mL (≈ 116 µM)	63 µg/mL (≈ 228 µM)		63 µg/mL (≈ 228 µM)	0.5 µg/mL (≈ 1.81 µM)		32 µg/mL (≈ 116 µM)	> 63 µg/mL		4 µg/mL (≈ 14.5 µM)	4 µg/mL	> 63 µg/mL	8 µg/mL (≈ 28.9 µM)	32 µg/mL (≈ 116 µM)		0.5 µg/mL (≈ 1.81 µM)	MIC (E. coli A-20341-1; [10]): 32 µg/mL (≈ 116 µM); MIC (Ps. aeruginosa A-21213; [11]): 63 µg/mL (≈ 228 µM); MIC (Proteus vulgaris A21559; [12]): 16 µg/mL (≈ 57.9 µM); MIC [4, 13]: 63 µg/mL (≈ 228 µM)
